Measured values as given in PubChem BioAssay (NCI).
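Dose response: 5 concentrations. Exposure: 48 h. Format: 96-well plates. Endpoint: linear interpolation; highest concentration if not reached. GI50 is the concentration that inhibits growth by half. TGI denotes the concentration required for complete inhibition of growth.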

Experiments:
Experiment in all cases: inhibition of tumour cell growth, NCI panel, 48 h
A498 renal = system: A498 renal
ACHN renal = system: ACHN renal
BT-549 breast = system: BT-549 breast
DU-145 prostate = system: DU-145 prostate
OVCAR-3 ovarian = system: OVCAR-3 ovarian
SF-268 CNS = system: SF-268 CNS
SF-295 CNS = system: SF-295 CNS
SN12C renal = system: SN12C renal
UACC-62 melanoma = system: UACC-62 melanoma
NCI-H522 lung = system: NCI-H522 lung

Compound	GI50 (A498 renal)	TGI (A498 renal)	GI50 (ACHN renal)	TGI (ACHN renal)	GI50 (BT-549 breast)	TGI (BT-549 breast)	GI50 (DU-145 prostate)	TGI (DU-145 prostate)	GI50 (OVCAR-3 ovarian)	TGI (OVCAR-3 ovarian)	GI50 (SF-268 CNS)	TGI (SF-268 CNS)	GI50 (SF-295 CNS)	TGI (SF-295 CNS)	GI50 (SN12C renal)	TGI (SN12C renal)	GI50 (UACC-62 melanoma)	TGI (UACC-62 melanoma)	TGI (NCI-H522 lung)	GI50 (NCI-H522 lung)
NC(=O)C(Br)CBr (stereo not drawn)	15.3 µM	29 µM	0.816 µM	2.18 µM	2.39 µM	7.4 µM	2.26 µM	5.72 µM	1.48 µM	2.83 µM	2.65 µM	8.29 µM	14.7 µM	35.2 µM	3.93 µM	20.6 µM	2.14 µM	6.07 µM	–	–
CCON=C1C(C)(C)C(C)(C)C(C)(C)C1(C)C	–	> 100 µM	–	> 100 µM	–	> 100 µM	–	> 100 µM	–	> 100 µM	–	> 100 µM	–	> 100 µM	–	> 100 µM	–	> 100 µM	> 100 µM	–
COC(=O)Nc1nc2ccc(Oc3ccc(NC(=O)Nc4cccc(Br)c4)cc3)cc2[nH]1	2.1 µM	17.4 µM	5.53 µM	> 25 µM	11.3 µM	> 25 µM	3.15 µM	> 14.6 µM	1.07 µM	3.99 µM	3.98 µM	> 25 µM	1.18 µM	> 19.2 µM	4.65 µM	> 25 µM	0.906 µM	7.41 µM	2.7 µM	0.351 µM
O=c1[nH]c(-c2ccccc2)nc2ccc(Cl)cc12	–	–	–	> 100 µM	–	–	–	–	–	> 100 µM	–	> 100 µM	–	> 100 µM	–	> 100 µM	–	–	95.7 µM	–
CS(=O)(=O)N(CCC#N)c1ccc(/C=N/NC(=O)CC(=O)Nc2cccc(Cl)c2)cc1	–	> 100 µM	–	> 100 µM	–	–	–	–	–	> 100 µM	–	> 100 µM	–	> 100 µM	–	> 100 µM	–	> 100 µM	> 100 µM	–
CN(C)/C=C/c1nnnn1-c1ccc(Cl)cc1	30.5 µM	87.1 µM	24.7 µM	> 100 µM	8.56 µM	38.7 µM	14.2 µM	64.3 µM	–	–	3.01 µM	19.8 µM	19 µM	36.7 µM	4.69 µM	28.8 µM	8.22 µM	31.4 µM	64.8 µM	25.2 µM
Cn1ccnc1C(c1nccn1C)C(C)(C)[N+](=O)[O-]	–	> 100 µM	–	> 100 µM	–	–	–	–	–	> 100 µM	–	> 100 µM	–	> 100 µM	–	> 100 µM	–	56.6 µM	> 100 µM	–
Cc1ccc(C(=O)O/N=C2/CCCCC2CN(C)C)cc1 (stereo not drawn)	–	> 100 µM	–	> 100 µM	–	–	–	–	–	> 100 µM	–	–	–	> 100 µM	–	> 100 µM	–	> 100 µM	> 100 µM	–
O=C1O[C@H](C(Cl)(Cl)Cl)N2CCCC12 (stereo partly drawn)	–	> 100 µM	–	> 100 µM	–	–	–	–	–	> 100 µM	–	> 100 µM	–	> 100 µM	–	> 100 µM	–	> 100 µM	> 100 µM	–
c1cc(C2CCCCC2)ccc1OCCCCCCN1CCNCC1	5.06 µM	26.5 µM	1.78 µM	3.33 µM	–	–	1.88 µM	3.42 µM	1.82 µM	3.57 µM	–	–	1.92 µM	3.77 µM	1.79 µM	3.54 µM	1.86 µM	3.81 µM	3.38 µM	1.7 µM
COc1ccccc1/C=C1\CCC(CNc2ccc(Cl)cc2)C1=O (stereo not drawn)	–	27 µM	–	14.6 µM	–	–	–	–	–	22.9 µM	–	24.2 µM	–	15.4 µM	–	26.5 µM	–	3.48 µM	4.45 µM	–
CC1=C(SCc2ccccc2)C(=O)c2ccccc2C1=O	–	62.1 µM	–	27.2 µM	–	32.1 µM	–	34.9 µM	–	23.1 µM	–	31.3 µM	–	32.5 µM	–	40.3 µM	–	31.8 µM	–	–
CNS(=O)(=O)NN(C)S(=O)(=O)c1ccc(Cl)cc1	–	> 100 µM	–	> 100 µM	–	–	–	–	–	> 100 µM	–	> 100 µM	–	> 100 µM	–	> 100 µM	–	> 100 µM	> 100 µM	–
Oc1ccc2occ3c2c1CCC3	–	> 100 µM	–	> 100 µM	–	–	–	–	–	> 100 µM	–	–	–	> 100 µM	–	> 100 µM	–	> 100 µM	–	–
CC1CCC2(NC1)OC1CC3[C@@H]4CC=C5C=CCC[C@]5(C)C4CC[C@]3(C)C1C2C (stereo partly drawn)	–	> 100 µM	–	44.6 µM	–	–	–	–	–	80.5 µM	–	> 100 µM	–	52.8 µM	–	85.8 µM	–	42.5 µM	–	–
O=CN1N=C(c2ccc(Nc3ccnc4cc(Cl)ccc34)cc2)CC1c1ccccc1 (stereo not drawn)	1.3 µM	6.79 µM	4.21 µM	84.4 µM	3.81 µM	15.6 µM	3.8 µM	27.8 µM	2.78 µM	7.71 µM	3.96 µM	> 100 µM	2.41 µM	8.91 µM	3.8 µM	> 100 µM	1.55 µM	4.16 µM	–	–
COc1cc(N=Nc2ccccc2)cc(/C=N\[N-]C(N)=S)c1[O-].COc1cc(N=Nc2ccccc2)cc(/C=N\[N-]C(N)=S)c1[O-].[Fe+4]	–	–	–	–	–	–	–	–	> 100 µM	> 100 µM	12.2 µM	> 100 µM	–	–	–	–	0.378 µM	> 100 µM	–	–
NC1CCCCC1N.O=C([O-])P(=O)([O-])[O-].[Na+].[Pt+4] (stereo not drawn)	> 100 µM	> 100 µM	> 100 µM	> 100 µM	–	–	–	–	> 100 µM	> 100 µM	> 100 µM	> 100 µM	> 100 µM	> 100 µM	> 100 µM	> 100 µM	> 100 µM	> 100 µM	–	–
COc1ccc(S(=O)(=O)N/N=C/CN2C(=O)c3ccccc3C2=O)cc1OC	–	> 100 µM	–	> 100 µM	–	–	–	–	–	> 100 µM	–	> 100 µM	–	> 100 µM	–	–	–	> 100 µM	> 100 µM	–
O=C1c2ccccc2-c2nccc3cc(Cl)nc1c23	6.21 µM	32.5 µM	–	–	7.11 µM	> 100 µM	–	–	0.631 µM	1.79 µM	1.74 µM	4.28 µM	4.61 µM	> 88.9 µM	2.25 µM	> 100 µM	2.77 µM	13 µM	1.61 µM	0.458 µM
